Experimental data from patent US20260109732A1, “LIPID AMINES” (ModernaTX, Inc., priority 2021, published 2026).
Where a name gives a salt, the structure may show the parent alone.

Key:
[1] = Diameter and PDI from DLS measurements of mRNA nanoparticles with lipid amines; type: physicochemical
How it was run: (§1)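 DLS gave size and PDI, and Ribogreen gave encapsulation, for luciferase- or CFTR-mRNA nanoparticles (N:P 4.93). Particles came from IL1/DSPC/cholesterol/PEG-DMG-2K mixed at pH 4, mRNA-loaded, neutralized with TRIS pH 8.12, and then treated with lipid amine SA50 in pH 7.5 buffer.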

[2] = Encapsulation of mRNA nanoparticles with lipid amines using Ribogreen assay; type: physicochemical
How it was run: as §1

HeLa cells [3] = test: Luciferase Protein Expression Assay in HeLa Cells; type: cell-based, Human; conditions: LNPs encapsulating Luciferase mRNA, 25 ng per well, N=4 wells; 5 h serum-free then 24 h; ONE-Glo
How it was run: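 Luminescence output, average RLU across N=4 wells, was measured with ONE-Glo after cell lysis. Before that, HeLa cells were exposed to 25 ng/well luciferase-mRNA nanoparticles (PBS control) for 5 h serum-free, then cultured overnight (24 h) in complete MEM.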

HeLa cells [4] = test: CFTR Protein Expression Assay in HeLa Cells; type: cell-based, Human; conditions: LNPs encapsulating CFTR mRNA, N=4 wells; 5 h serum-free then 24 h; immunofluorescence vs PBS control
How it was run: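 Readout is fold-change in per-cell CFTR immunofluorescence intensity (488 nm, confocal imaging) relative to PBS-treated cells, from 4 replicate wells. LNPs encapsulating CFTR mRNA were applied serum-free for 5 h, followed by 24 h in complete medium before PFA fixation.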

[5] = CFTR mRNA nanoparticle with lipid amine
[6] = Luciferase mRNA nanoparticle modified with lipid amine

Row | SMILES | Diameter (nm) [1, 5] [nm] | PDI [1, 5] | Diameter (nm) [1, 6] [nm] | PDI [1, 6] | % Encapsulation (Ribogreen) [2, 5] [%] | % Encapsulation (Ribogreen) [2, 6] [%] | Average Relative Light Units ± Standard Deviation (HeLa cells [3]) [Relative Light Units] | Average fold-change in CFTR signal intensity per cell compared to buffer control ± standard deviation (HeLa cells [4]) [fold-change]
1 | CC(C)CCC[C@@H](C)[C@H]1CC[C@H]2[C@@H]3CC=C4C[C@@H](OC(=O)CN(CCCN)CCCCCCCCN)CC[C@]4(C)[C@H]3CC[C@]12C [SA71, (3S,8S,9S,10R,13R,14S,17R)-10,13-Dimethyl-17-((R)-6-methylheptan-2-yl)-2,3,4,7,8,9,10,11,12,13,14,15,16,17-tetradecahydro-1H-cyclopenta[a]phenanthren-3-yl N-(8-aminooctyl)-N-(3-aminopropyl)glycinate trihydrochloride] | 74.3 | 0.12 | 73 | 0.15 | 99.8 | 99.1 | 32758.9 ± 5897.1 | 6.0 ± 0.4
2 | CC[C@H](CC[C@@H](C)[C@H]1CC[C@H]2[C@@H]3CC=C4C[C@@H](OC(=O)CCC(=O)N(CCCC(C)(C)N)CCC(C)(C)N)CC[C@]4(C)[C@H]3CC[C@]12C)C(C)C [SA167, (3S,8S,9S,10R,13R,14S,17R)-17-((2R,5R)-5-ethyl-6-methylheptan-2-yl)-10,13-dimethyl-2,3,4,7,8,9,10,11,12,13,14,15,16,17-tetradecahydro-1H-cyclopenta[a]phenanthren-3-yl 4-((3-amino-3-methylbutyl)(4-amino-4-methylpentyl)amino)-4-oxobutanoate dihydrochloride] | 75.1 | 0.16 | 75 | 0.15 | 100 | 98.7 | 38742.4 ± 6037.5 | 14.9 ± 1.4
